≈ marks a conversion by molar mass, not a printed value.
Legend:
Experiment in all cases: ≥ marks a high value that may be exact or a test limit, other limits are often not marked, values filed in µg/mL are converted to µM
Bacillus subtilis 168 = tested on: Bacillus subtilis 168
[1] = tested on: Staphylococcus aureus ATCC 43300
[2] = tested on: Candida albicans F7-39/IDE99
Staphylococcus aureus 1 = tested on: Staphylococcus aureus 1
[3] = tested on: Micrococcus luteus CCM 144
Pseudomonas aeruginosa = tested on: Pseudomonas aeruginosa
[4] = tested on: Staphylococcus epidermidis
Staphylococcus aureus = tested on: Staphylococcus aureus
[5] = tested on: Pseudomonas aeruginosa ATCC 27853
Escherichia coli B = tested on: Escherichia coli B
[6] = tested on: Staphylococcus aureus HNCMO 112011
[7] = tested on: Escherichia coli ATCC 8739
[8] = tested on: Acinetobacter baumannii ATCC 17978
[9] = tested on: Fusarium graminearum PH-1
[10] = tested on: Micrococcus luteus ATCC 10240
Escherichia coli BL21AI = tested on: Escherichia coli BL21AI
[11] = tested on: Pseudomonas aeruginosa ATCC 10145
Escherichia coli MG1655 = tested on: Escherichia coli MG1655
[12] = tested on: Staphylococcus aureus ATCC 25923
[13] = tested on: Klebsiella pneumoniae ATCC 700603
[14] = tested on: Staphylococcus aureus RN4220
[15] = tested on: Escherichia coli NCIMB 11843
[16] = tested on: Cronobacter sakazakii DPC 6440
[17] = tested on: Staphylococcus aureus SA113
[18] = tested on: Cronobacter sakazakii ATCC BAA-894
[19] = tested on: Cronobacter muytjensii ATCC 51329
[20] = tested on: Staphylococcus aureus NCTC 8325-4
[21] = tested on: Staphylococcus aureus Newman
[22] = tested on: Klebsiella pneumoniae NCIMB 13218
[23] = tested on: Pseudomonas fluorescens NCIMB 9046
[24] = tested on: Staphylococcus aureus RF122
[25] = tested on: Cronobacter sakazakii DSM 4485
[26] = tested on: Salmonella enterica subsp. enterica serovar Typhimurium LT2

Q: Which MIC (Bacillus subtilis 168) does the source give for `CC[C@H](C)[C@H](NC(=O)CN)C(=O)N[C@@H](CCSC)C(=O)N[C@@H](CO)C(=O)N[C@@H](CO)C(=O)N[C@@H](CC(C)C)C(=O)N[C@@H](CCSC)C(=O)N[C@@H](CCCCN)C(=O)N[C@@H](CCCCN)C(=O)N[C@@H](CC(C)C)C(=O)N[C@@H](CCCCN)C(=O)N[C@@H](CCCCN)C(=O)N[C@H](C(=O)N[C@H](C(=O)N[C@@H](C)C(=O)N[C@@H](CCCCN)C(N)=O)[C@@H](C)CC)[C@@H](C)CC` [GIMSSLMKKLKKIIAK] here?
A: 7 µM (≈ 12.5 µg/mL)

Q: What about the MIC [1] of the same compound?
A: 32 µM (≈ 57.2 µg/mL)

Q: What about the MIC [2] of the same compound?
A: 5.2 µM (≈ 9.3 µg/mL)

Q: And the MIC (Staphylococcus aureus 1)?
A: 7.6 µM (≈ 13.6 µg/mL)

Q: What about the MIC [3] of the same compound?
A: 3 µM (≈ 5.37 µg/mL)

Q: What about the MIC (Pseudomonas aeruginosa) of the same compound?
A: 7.4 µM (≈ 13.2 µg/mL)

Q: And the MIC [4]?
A: 1.9 µM (≈ 3.4 µg/mL)

Q: What about the MIC (Staphylococcus aureus) of the same compound?
A: 23 µM (≈ 41.1 µg/mL)

Q: What about the MIC [5] of the same compound?
A: 5 µM (≈ 8.94 µg/mL)

Q: What about the MIC (Escherichia coli B) of the same compound?
A: 9 µM (≈ 16.1 µg/mL)

Q: `CC[C@H](C)[C@H](NC(=O)[C@H](CCCCN)NC(=O)[C@H](CCCCN)NC(=O)[C@H](C)NC(=O)[C@H](CC(C)C)NC(=O)[C@H](C)NC(=O)[C@H](C)NC(=O)[C@H](CC(C)C)NC(=O)[C@H](C)NC(=O)[C@@H](N)CCCCN)C(=O)N[C@@H](CC(C)C)C(=O)N[C@@H](CCC(N)=O)C(=O)N[C@@H](CCC(N)=O)C(=O)N[C@@H](CS)C(=O)N[C@@H](CCCN=C(N)N)C(=O)N[C@@H](CCCN=C(N)N)C(=O)N1CCC[C@H]1C(=O)N[C@@H](CC(C)C)C(=O)N[C@@H](Cc1ccc(O)cc1)C(=O)N[C@@H](CS)C(=O)N[C@@H](CCCN=C(N)N)C(=O)N[C@@H](CCCN=C(N)N)C(=O)N[C@@H](CCCN=C(N)N)C(=O)O` [KALAALAKKILQQCRRPLYCRRR] was tested. Which MIC [6] did it give?
A: 3.1 µM (≈ 8.54 µg/mL)

Q: What about the MIC [7] of the same compound?
A: 6.3 µM (≈ 17.4 µg/mL)

Q: What about the MIC [8] of the same compound?
A: 3.1 µM (≈ 8.54 µg/mL)

Q: For `C[C@H](NC(=O)CNC(=O)[C@@H](N)CCCN=C(N)N)C(=O)N[C@@H](CCCN=C(N)N)C(=O)N[C@@H](CCCN=C(N)N)C(=O)N[C@@H](CCCN=C(N)N)C(=O)O` [RGARRR], which MIC [9] is on record?
A: ≥ 96 µM

Q: Which results are given for `CC[C@H](C)[C@H](NC(=O)[C@H](CCCN=C(N)N)NC(=O)[C@H](CCCN=C(N)N)NC(=O)[C@@H]1CCCN1C(=O)[C@@H]1CCCN1C(=O)[C@H](CCCN=C(N)N)NC(=O)[C@@H]1CCCN1C(=O)[C@H](CCCN=C(N)N)NC(=O)[C@@H]1CCCN1C(=O)[C@H](CC(C)C)NC(=O)[C@H](Cc1ccc(O)cc1)NC(=O)[C@@H]1CCCN1C(=O)[C@@H]1CCCN1C(=O)[C@H](CCCCN)NC(=O)[C@H](CC(=O)O)NC(=O)[C@@H](N)C(C)C)C(=O)N[C@@H](Cc1ccc(O)cc1)C(=O)N[C@@H](CC(N)=O)C(=O)N[C@@H](C)C(N)=O` [VDKPPYLPRPRPPRRIYNA]?
A: MIC [10]: 6.94 µM (≈ 16 µg/mL); MIC (Escherichia coli BL21AI): 13.9 µM (≈ 32 µg/mL)

Q: `C[C@H](NC(=O)[C@H](C)NC(=O)[C@H](CCCCN)NC(=O)[C@H](CCCCN)NC(=O)[C@H](C)NC(=O)[C@H](Cc1ccccc1)NC(=O)[C@H](CCCCN)NC(=O)[C@H](CCCCN)NC(=O)[C@H](C)NC(=O)[C@H](Cc1ccccc1)NC(=O)[C@H](CCCCN)NC(=O)[C@H](CCCCN)NC(=O)[C@H](C)NC(=O)[C@H](Cc1ccccc1)NC(=O)[C@@H](N)CCCCN)C(=O)N[C@@H](CCCCN)C(=O)O` [KFAKKFAKKFAKKAAK] was tested. Which MIC [11] did it give?
A: ≥ 136 µM

Q: With `CC(C)C[C@H](NC(=O)[C@H](Cc1c[nH]c2ccccc12)NC(=O)[C@H](Cc1cnc[nH]1)NC(=O)[C@H](CCCCN)NC(=O)[C@H](CC(C)C)NC(=O)[C@H](C)NC(=O)[C@H](CC(C)C)NC(=O)[C@H](CCCCN)NC(=O)CNC(=O)[C@@H](NC(=O)[C@@H](NC(=O)[C@H](CCCCN)NC(=O)[C@@H](NC(=O)[C@H](CCC(=O)O)NC(=O)[C@H](C)NC(=O)[C@H](CCCCN)NC(=O)[C@H](CCCCN)NC(=O)[C@H](CC(C)C)NC(=O)[C@H](CC(C)C)NC(=O)[C@@H](NC(=O)[C@H](CCCN=C(N)N)NC(=O)[C@H](Cc1ccc(O)cc1)NC(=O)CN)[C@@H](C)O)C(C)C)[C@@H](C)O)C(C)C)C(=O)O` [GYRTLLKKAEVKTVGKLALKHWL] as the compound, how does the MIC (Escherichia coli MG1655) read?
A: 15 µM (≈ 39.8 µg/mL)

Q: What about the MIC [12] of the same compound?
A: 15 µM (≈ 39.8 µg/mL)

Q: And the MIC [13]?
A: > 15 µM

Q: And the MIC [11]?
A: 15 µM (≈ 39.8 µg/mL)

Q: Which results are given for `CC[C@H](C)[C@H](NC(=O)CN)C(=O)N[C@@H](CC(C)C)C(=O)N[C@@H](CO)C(=O)N[C@@H](CCCCN)C(=O)N[C@@H](CC(C)C)C(=O)N[C@@H](CC(C)C)C(=O)N[C@@H](CCCCN)C(=O)N[C@@H](CCCCN)C(=O)N[C@@H](CC(C)C)C(=O)N[C@@H](CCCCN)C(=O)N[C@@H](CCCCN)C(=O)N[C@H](C(=O)N[C@H](C(=O)N[C@@H](C)C(=O)N[C@@H](CCCCN)C(N)=O)[C@@H](C)CC)[C@@H](C)CC` [GILSKLLKKLKKIIAK]?
A: MIC (Bacillus subtilis 168): 7 µM (≈ 12.6 µg/mL); MIC [1]: 23 µM (≈ 41.2 µg/mL); MIC [2]: ≥ 45 µM; MIC (Staphylococcus aureus 1): 5.9 µM (≈ 10.6 µg/mL); MIC [3]: 3 µM (≈ 5.38 µg/mL); MIC (Pseudomonas aeruginosa): 8.5 µM (≈ 15.2 µg/mL); MIC [4]: 1.8 µM (≈ 3.23 µg/mL); MIC (Staphylococcus aureus): 10 µM (≈ 17.9 µg/mL); MIC [5]: 4.5 µM (≈ 8.07 µg/mL); MIC (Escherichia coli B): 18 µM (≈ 32.3 µg/mL)

Q: For `NCC(=O)N[C@@H](CCCN=C(N)N)C(=O)N[C@H]1CSSC[C@@H](C(=O)O)NC(=O)[C@H](CCCN=C(N)N)NC(=O)[C@H](Cc2ccccc2)NC(=O)[C@H](CC(=O)O)NC(=O)[C@H](CC(=O)O)NC(=O)[C@H](CCCN=C(N)N)NC1=O` [GRCRDDFRC], which MIC [9] is on record?
A: ≥ 192 µM

Q: For `CC[C@H](C)[C@H](NC(=O)CN)C(=O)N[C@@H](CC(C)C)C(=O)N[C@@H](CO)C(=O)N[C@@H](CO)C(=O)N[C@@H](CC(C)C)C(=O)N[C@@H](CC(C)C)C(=O)N[C@@H](CCCCN)C(=O)N[C@@H](CCCCN)C(=O)N[C@@H](CC(C)C)C(=O)N[C@@H](CCCCN)C(=O)N[C@@H](CCCCN)C(=O)N[C@@H](Cc1c[nH]c2ccccc12)C(=O)N[C@H](C(=O)N[C@@H](C)C(=O)N[C@@H](CCCCN)C(N)=O)[C@@H](C)CC` [GILSSLLKKLKKWIAK], which MIC (Bacillus subtilis 168) is on record?
A: 7 µM (≈ 12.8 µg/mL)

Q: And the MIC [1]?
A: 8 µM (≈ 14.6 µg/mL)

Q: What about the MIC [2] of the same compound?
A: 16 µM (≈ 29.2 µg/mL)

Q: And the MIC (Staphylococcus aureus 1)?
A: 2.6 µM (≈ 4.75 µg/mL)

Q: And the MIC [3]?
A: 3 µM (≈ 5.48 µg/mL)

Q: And the MIC (Pseudomonas aeruginosa)?
A: 21 µM (≈ 38.3 µg/mL)

Q: And the MIC [4]?
A: 1.6 µM (≈ 2.92 µg/mL)

Q: And the MIC (Staphylococcus aureus)?
A: 4 µM (≈ 7.3 µg/mL)

Q: What about the MIC [5] of the same compound?
A: 8 µM (≈ 14.6 µg/mL)

Q: What about the MIC (Escherichia coli B) of the same compound?
A: 4 µM (≈ 7.3 µg/mL)

Q: Which MIC [9] does the source give for `NCC(=O)N[C@@H](CCCN=C(N)N)C(=O)N[C@H]1CSSC[C@@H](C(=O)O)NC(=O)[C@H](CCCN=C(N)N)NC(=O)[C@H](CCCN=C(N)N)NC(=O)[C@H](CCCN=C(N)N)NC(=O)[C@H](Cc2ccccc2)NC(=O)CNC(=O)[C@H](CCCN=C(N)N)NC1=O` [GRCRGFRRRC] here?
A: 6 µM (≈ 7.59 µg/mL)

Q: Which results are given for `CC[C@H](C)[C@H](N)C(=O)N[C@@H](Cc1cnc[nH]1)C(=O)N[C@@H](CCC(N)=O)C(=O)NCC(=O)N[C@@H](CC(C)C)C(=O)N1CCC[C@H]1C(=O)N[C@@H](CCC(N)=O)C(=O)N[C@@H](CCC(=O)O)C(=O)O` [IHQGLPQE]?
A: MIC [14]: ≥ 1250 µM; MIC [15]: ≥ 2500 µM; MIC [16]: ≥ 2500 µM; MIC [17]: ≥ 2500 µM; MIC [18]: ≥ 2500 µM; MIC [19]: ≥ 2500 µM; MIC [20]: ≥ 2500 µM; MIC [21]: ≥ 2500 µM; MIC [22]: ≥ 2500 µM; MIC [23]: ≥ 2500 µM; MIC [24]: ≥ 1250 µM; MIC [25]: ≥ 2500 µM; MIC [26]: ≥ 2500 µM
